# Values joined by “and” are separate entries in the source; they are usually repeats but may differ in a detail not shown here. Identical values can stand only once. Toxic doses and inconclusive results are not listed.
# Test system: L1210 leukemia ip in BDF1 mice, survival T/C
# Assay: NCI In Vivo Anticancer Drug Screen. Data for tumor model L1210 Leukemia (intraperitoneal) in B6D2F1 (BDF1) mice
# Conditions: endpoint: mean survival time, higher = longer survival
# Method in brief: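 Antitumor effect is assessed in tumor-bearing animals. Survival in the compound arm is compared with a vehicle-dosed control arm and expressed as their quotient.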
# [1] = dose: 25.0 mg/kg/injection, schedule: Q04DX003 (ip), vehicle: saline
# [2] = dose: 50.0 mg/kg/injection, schedule: Q01DX001 (ip), vehicle: saline
# [3] = dose: 50.0 mg/kg/injection, schedule: Q04DX003 (ip), vehicle: saline
# [4] = dose: 100.0 mg/kg/injection, schedule: Q01DX001 (ip), vehicle: saline
# [5] = dose: 100.0 mg/kg/injection, schedule: Q04DX003 (ip), vehicle: saline
# [6] = dose: 25.0 mg/kg/injection, schedule: Q01DX009 (ip), vehicle: saline with Tween-80
# [7] = dose: 50.0 mg/kg/injection, schedule: Q01DX009 (ip), vehicle: saline with Tween-80
# [8] = dose: 100.0 mg/kg/injection, schedule: Q01DX009 (ip), vehicle: Klucel (hydroxypropylcellulose) (HPC)
# [9] = dose: 400.0 mg/kg/injection, schedule: Q01DX001 (ip), vehicle: saline
# [10] = dose: 100.0 mg/kg/injection, schedule: Q04DX002 (ip), vehicle: Klucel (hydroxypropylcellulose) (HPC)
# [11] = dose: 200.0 mg/kg/injection, schedule: Q04DX002 (ip), vehicle: Klucel (hydroxypropylcellulose) (HPC)
# [12] = dose: 400.0 mg/kg/injection, schedule: Q04DX002 (ip), vehicle: Klucel (hydroxypropylcellulose) (HPC)
smiles,measurement,setting,value
NC(CSSCC(N)=NC1CCCCC1)=NC1CCCCC1,T/C,"dose: 3.0 mg/kg/injection, schedule: Q01DX009 (ip), vehicle: saline",96 % of control and 103 % of control
same,T/C,"dose: 6.0 mg/kg/injection, schedule: Q01DX009 (ip), vehicle: saline",106 % of control and 90 % of control
same,T/C,"dose: 6.25 mg/kg/injection, schedule: Q04DX002 (ip), vehicle: saline with Tween-80",124 % of control
same,T/C,"dose: 12.0 mg/kg/injection, schedule: Q01DX009 (ip), vehicle: saline",103 % of control and 104 % of control
same,T/C,"dose: 12.5 mg/kg/injection, schedule: Q01DX001 (ip), vehicle: saline with Tween-80",94 % of control
same,T/C,"dose: 12.5 mg/kg/injection, schedule: Q01DX009 (ip), vehicle: carboxymethylcellulose (CMC)",100 % of control and 105 % of control
same,T/C,"dose: 12.5 mg/kg/injection, schedule: Q04DX002 (ip), vehicle: saline with Tween-80",109 % of control
same,T/C,"dose: 25.0 mg/kg/injection, schedule: Q01DX001 (ip), vehicle: saline with Tween-80",100 % of control
same,T/C,"dose: 25.0 mg/kg/injection, schedule: Q01DX009 (ip), vehicle: carboxymethylcellulose (CMC)",103 % of control
same,T/C,"dose: 25.0 mg/kg/injection, schedule: Q04DX002 (ip), vehicle: carboxymethylcellulose (CMC)",96 % of control and 91 % of control
same,T/C,"dose: 25.0 mg/kg/injection, schedule: Q04DX002 (ip), vehicle: saline with Tween-80",102 % of control
same,T/C,"dose: 50.0 mg/kg/injection, schedule: Q04DX002 (ip), vehicle: carboxymethylcellulose (CMC)",95 % of control
same,T/C,"dose: 100.0 mg/kg/injection, schedule: Q04DX003 (ip), vehicle: carboxymethylcellulose (CMC)",104 % of control
same,T/C,"dose: 200.0 mg/kg/injection, schedule: Q04DX003 (ip), vehicle: carboxymethylcellulose (CMC)",96 % of control
C/C(CC(O)(C(F)(F)F)C(F)(F)F)=N\Nc1ccccc1,T/C,"dose: 100.0 mg/kg/injection, schedule: Q04DX003 (ip), vehicle: other",102 % of control
same,T/C,"dose: 200.0 mg/kg/injection, schedule: Q04DX003 (ip), vehicle: other",97 % of control
same,T/C,"dose: 400.0 mg/kg/injection, schedule: Q04DX003 (ip), vehicle: other",106 % of control
O=C1C(=O)c2cc(Br)cc([N+](=O)[O-])c2-c2ccc(Br)cc21,T/C,"dose: 50.0 mg/kg/injection, schedule: Q01DX001 (ip), vehicle: carboxymethylcellulose (CMC)",95 % of control
same,T/C,"dose: 100.0 mg/kg/injection, schedule: Q01DX001 (ip), vehicle: carboxymethylcellulose (CMC)",106 % of control
same,T/C,"dose: 200.0 mg/kg/injection, schedule: Q01DX001 (ip), vehicle: carboxymethylcellulose (CMC)",101 % of control
same,T/C,"dose: 400.0 mg/kg/injection, schedule: Q01DX001 (ip), vehicle: carboxymethylcellulose (CMC)",97 % of control
C1CCN(CN2CCCC2)C1,T/C,"dose: 25.0 mg/kg/injection, schedule: Q01DX001 (ip), vehicle: saline",96 % of control
same,T/C,"dose: 25.0 mg/kg/injection, schedule: Q01DX009 (ip), vehicle: saline",92 % of control
same,T/C,[1],98 % of control
same,T/C,[2],94 % of control
same,T/C,"dose: 50.0 mg/kg/injection, schedule: Q01DX009 (ip), vehicle: saline",92 % of control
same,T/C,[3],105 % of control
same,T/C,[4],97 % of control and 88 % of control
same,T/C,[5],88 % of control
C=C/C(C)=C/[C@H](C)C(=O)C[C@H](O)CC1CC(=O)NC(=O)C1,T/C,"dose: 12.5 mg/kg/injection, schedule: Q01DX009 (ip), vehicle: saline with Tween-80",109 % of control
same,T/C,"dose: 25.0 mg/kg/injection, schedule: Q01DX009 (ip), vehicle: Klucel (hydroxypropylcellulose) (HPC)",113 % of control
same,T/C,[6],120 % of control
same,T/C,"dose: 50.0 mg/kg/injection, schedule: Q01DX009 (ip), vehicle: Klucel (hydroxypropylcellulose) (HPC)",122 % of control
same,T/C,[7],119 % of control
same,T/C,[8],90 % of control
same,T/C,"dose: 100.0 mg/kg/injection, schedule: Q01DX009 (ip), vehicle: saline with Tween-80",123 % of control
CC1(C)OC(=O)CC1c1ccccc1 (centres undefined),T/C,"dose: 5.0 mg/kg/injection, schedule: Q01DX001 (ip), vehicle: saline",108 % of control
same,T/C,"dose: 10.0 mg/kg/injection, schedule: Q01DX001 (ip), vehicle: saline",101 % of control
same,T/C,"dose: 20.0 mg/kg/injection, schedule: Q01DX001 (ip), vehicle: saline",86 % of control
same,T/C,"dose: 40.0 mg/kg/injection, schedule: Q01DX001 (ip), vehicle: saline",97 % of control
same,T/C,"dose: 80.0 mg/kg/injection, schedule: Q01DX001 (ip), vehicle: saline",101 % of control
same,T/C,[4],102 % of control
same,T/C,[9],95 % of control
Nc1nc(SCc2ccccc2)c2ncn(CCCl)c2n1,T/C,"dose: 5.0 mg/kg/injection, schedule: Q01DX001 (ip), vehicle: carboxymethylcellulose (CMC)",107 % of control
same,T/C,"dose: 10.0 mg/kg/injection, schedule: Q01DX001 (ip), vehicle: carboxymethylcellulose (CMC)",107 % of control
same,T/C,"dose: 13.0 mg/kg/injection, schedule: Q01DX Z (ip), vehicle: carboxymethylcellulose (CMC)",105 % of control
same,T/C,"dose: 20.0 mg/kg/injection, schedule: Q01DX001 (ip), vehicle: carboxymethylcellulose (CMC)",107 % of control
same,T/C,"dose: 30.0 mg/kg/injection, schedule: Q01DX Z (ip), vehicle: carboxymethylcellulose (CMC)",150 % of control
same,T/C,"dose: 40.0 mg/kg/injection, schedule: Q01DX001 (ip), vehicle: carboxymethylcellulose (CMC)",120 % of control
same,T/C,"dose: 67.0 mg/kg/injection, schedule: Q01DX Z (ip), vehicle: carboxymethylcellulose (CMC)",116 % of control
same,T/C,"dose: 80.0 mg/kg/injection, schedule: Q01DX001 (ip), vehicle: carboxymethylcellulose (CMC)",122 % of control
same,T/C,"dose: 100.0 mg/kg/injection, schedule: Q01DX Z (ip), vehicle: carboxymethylcellulose (CMC)",101 % of control
same,T/C,"dose: 150.0 mg/kg/injection, schedule: Q01DX Z (ip), vehicle: carboxymethylcellulose (CMC)",90 % of control
same,T/C,"dose: 320.0 mg/kg/injection, schedule: Q01DX001 (ip), vehicle: carboxymethylcellulose (CMC)",116 % of control
COc1ccc(C(=O)CC(c2ccccc2)N2CCCCC2)cc1OC (centres undefined),T/C,"dose: 100.0 mg/kg/injection, schedule: Q04DX003 (ip), vehicle: saline with Tween-80",100 % of control
same,T/C,"dose: 200.0 mg/kg/injection, schedule: Q04DX003 (ip), vehicle: saline with Tween-80",108 % of control
same,T/C,"dose: 400.0 mg/kg/injection, schedule: Q04DX003 (ip), vehicle: saline with Tween-80",105 % of control
S=C(NCc1ccccc1)NCc1ccccc1,T/C,[10],94 % of control and 87 % of control
same,T/C,[11],87 % of control
same,T/C,[12],90 % of control
O=[N+]([O-])c1ccc(S(=O)(=O)SC(F)(F)F)cc1,T/C,"dose: 75.0 mg/kg/injection, schedule: Q01DX001 (ip), vehicle: saline",106 % of control
same,T/C,"dose: 150.0 mg/kg/injection, schedule: Q01DX001 (ip), vehicle: saline",102 % of control
COc1ccc([N+](=O)[O-])cc1[I+]c1cc([N+](=O)[O-])ccc1OC,T/C,[2],111 % of control
same,T/C,[4],90 % of control
same,T/C,"dose: 200.0 mg/kg/injection, schedule: Q01DX001 (ip), vehicle: saline",96 % of control
same,T/C,[9],90 % of control
COC(=O)c1ccccc1NC(=S)NC(=O)c1ccccc1F,T/C,[6],93 % of control
same,T/C,[7],92 % of control
same,T/C,"dose: 200.0 mg/kg/injection, schedule: Q01DX009 (ip), vehicle: saline with Tween-80",91 % of control
O=C(Nc1ccccc1C(=O)OCc1ccc([N+](=O)[O-])cc1)OCc1ccccc1,T/C,"dose: 75.0 mg/kg/injection, schedule: Q04DX003 (ip), vehicle: saline",98 % of control
same,T/C,"dose: 150.0 mg/kg/injection, schedule: Q04DX003 (ip), vehicle: saline",98 % of control
same,T/C,"dose: 300.0 mg/kg/injection, schedule: Q04DX003 (ip), vehicle: saline",104 % of control
CCOc1ccccc1NC(=O)Nc1cccc(C(F)(F)F)c1,T/C,[10],99 % of control
same,T/C,[11],92 % of control
same,T/C,[12],89 % of control
CCOC(=O)Cn1c(=O)ssc1=O,T/C,[1],100 % of control
same,T/C,[3],100 % of control
same,T/C,[5],100 % of control
OCc1cscc1-c1cscc1CO,T/C,"dose: 100.0 mg/kg/injection, schedule: Q01DX001 (ip), vehicle: saline with Tween-80",97 % of control
same,T/C,"dose: 200.0 mg/kg/injection, schedule: Q01DX001 (ip), vehicle: saline with Tween-80",111 % of control
same,T/C,"dose: 400.0 mg/kg/injection, schedule: Q01DX001 (ip), vehicle: saline with Tween-80",93 % of control
O=C(O)CN1C(=O)OC(c2ccccc2)C1=O (centres undefined),T/C,[8],101 % of control
same,T/C,"dose: 200.0 mg/kg/injection, schedule: Q01DX009 (ip), vehicle: Klucel (hydroxypropylcellulose) (HPC)",97 % of control
same,T/C,"dose: 400.0 mg/kg/injection, schedule: Q01DX009 (ip), vehicle: Klucel (hydroxypropylcellulose) (HPC)",86 % of control

# — PubChem BioAssay AID248 (DTP/NCI, 2004)
